Earlier results on one molecule are cited in patent US20220280463A1, “PHARMACEUTICAL FORMULATIONS COMPRISING DICLOFENAC” (FTF PHARMA PRIVATE LIMITED, priority 2019, published 2022).

This data set has as its system erythrocytes. The note with it: aqueous solution of 2% propylene glycol, in 45 min.

With `CC(O)CO` (stereo not shown) [propylene glycol], the haemolysis of erythrocytes was 100%.
